The values that follow come from patent US20230372272A1, “USE OF CYSTINE AND DERIVATIVES THEREOF AS ANTI-THROMBOTIC AND THROMBOLYTIC AGENTS” (Georgia Tech Research Corporation, priority 2020, published 2023).

The test system of test [1] is VWF- and platelet-rich white thrombi. In words: Lysis of platelet-rich white thrombi in collagen-coated stenotic capillary tube under arterial shear (perfusion of lytic agents). Format: cell-based, Porcine. To be noted: 0.02 mg/ml, 60 min perfusion. Here is the method:
Collagen Coating: The stenotic glass test sections (inner diameter=1.5 mm) described herein were made by the Chemistry and Biochemistry Glass Shop at Georgia Institute of Technology. The % stenosis by diameter reduction ranged from 60% to 80%. Fibrillar equine collagen (type I; Chrono-Log Corporation, Havertown, PA) was diluted 9:1 in NaCl (Sigma-Aldrich, St. Louis, MO) and incubated in the test section at the stenosis for 24 h in a warm, moist environment (Para, A., Bark, D., Lin, A. & Ku, D. Rapid platelet accumulation leading to thrombotic occlusion. Ann Biomed Eng 39, 1961-1971, 2011; Para, A. N. & Ku, D. N. A low-volume, single pass in-vitro system of high shear thrombosis in a stenosis. Thromb Res 131, 418-424, 2013).
(§1) Blood Collection: Porcine blood was collected at a local abattoir immediately following slaughter into 3.5 U/mL heparin (Thermo Fisher Scientific, Waltham, MA) or 3.2% sodium citrate (Sigma-Aldrich, St. Louis, MO). Whole blood was gently agitated using an Orbit LS shaker (Laboratory Supply Network, Atkinson, NH) until perfusion and used in experiments as soon as possible the same day as collection.
Syringe Perfusion: Lightly heparinized whole blood was perfused through the stenotic test section using a syringe pump. The flow rate was set so that the initial wall shear rate in the stenosis was 3,500 s^−1. A pressure transducer was connected in-line upstream of the stenosis (FIG. 2A). A dissecting microscope with a camera (PCO-Tech Incorporated, Romulus, MI) was used to capture images in real-time during perfusion. Blood perfusion continued until the upstream pressure increased by 30 mmHg (equivalent to an arterial pressure head in vivo) as a result of platelet thrombus formation in the stenotic section. Perfusion with a syringe pump (constant flow rate over constant pressure head) ensured that the thrombi were never fully occlusive, allowing subsequent perfusion for the induction of lysis.
Pharmacologic Agents: Recombinant human tPA (Sigma-Aldrich, St. Louis, MO), recombinant human ADAMTS-13 (MyBiosource, San Diego, CA), abciximab (ReoPro was kindly provided by Dr. Kevin Maher at Emory/CHOA), NAC (Thermo Fisher Scientific, Waltham, MA), and DiNAC (Cayman Chemical, Ann Arbor, Ml) or control (PBS) treatments were perfused for an hour at a flow rate of 1 ml/min. Agent solutions were made by dissolution or dilution in PBS. The in vitro flow system setup and image acquisition are shown in FIG. 2, and the concentrations of each agent are detailed in Table 2.
Real-time image capture (5 frames per second) of the stenosis continued throughout treatment perfusion.
Data Analysis: The thrombi surface area (which was colored green) was calculated using manual pixel counting in the open-source GNU Image Manipulation Program (GIMP, Version 2.10.8, 1995-2018). Surface area reduction was calculated by % pixel reduction versus the occlusion image. Analysis of variance (ANOVA) was used to test for statistical differences between groups, with the significance set at p<0.05.
In this example, a stenotic capillary tube model, which potentiates VWF- and platelet-rich white thrombi in an arterial setting on a collagen-coated stenosis was used (Para, A., Bark, D., Lin, A. & Ku, D. Rapid platelet accumulation leading to thrombotic occlusion. Ann Biomed Eng 39, 1961-1971, 2011; Ku, D. N. & Flannery, C. J. Development of a flow-through system to create occluding thrombus. Biorheology 44, 273-284, 2007; Para, A. N. & Ku, D. N. A low-volume, single pass in-vitro system of high shear thrombosis in a stenosis. Thromb Res 131, 418-424, 2013) to test lysis of 90% occlusive white thrombi (FIG. 2) and perfused low (2 mM) and high (20 mM) concentrations of NAC and DiNAC solutions. As illustrated in FIG. 2. DiNAC, but not NAC, achieved thrombolysis over 60 minutes of perfusion (FIG. 3A-3D). 2 mM and 20 mM DiNAC lysed most of the thrombi (>95%) within 14 min and 1.5 min, respectively (FIG. 3A-3B).

Test [2] concerns fibrin clots from recalcified citrated whole blood. Kind of test: Red clot lysis under stagnant conditions, whole blood clots. In kind it is cell-based, Porcine.
Description: as §1
(§2) Red clot formation and lysis: Platelet rich plasma (PRP) was made by separating citrated whole blood via gravity over a 2 h period and collecting the supernatant. Separation via gravity was employed instead of centrifugation to avoid platelet damage and activation. Citrated whole blood or PRP was then recalcified with CaCl2 to a final [Ca^2+] of 10 mM (Griffin, M. T., Kim, D. & Ku, D. N. Shear-induced platelet aggregation: 3D-grayscale microfluidics for repeatable and localized occlusive thrombosis. Biomicrofluidics 13, 2019), and 200 μl was transferred into 500 μal centrifuge tubes and allowed to clot and retract for 30 min. The clot was then incubated with 100 μl of either agent or control solution. The treatment solution was exchanged by removing the top 100 μl and replacement with fresh solution at 3, 6, 12, 24, and 48 h of incubation. The weight of the tube was measured immediately post-clot formation and at each timepoint after removal of old solution and prior to the replacement with fresh solution.

The subject of test [3] is fibrin clots from recalcified platelet rich plasma (PRP). Kind of test: Red clot lysis under stagnant conditions, PRP clots. Format: cell-based, Porcine.
Description: as §1, §2

The subject of test [4] is platelet-rich thrombi from heparinized human whole blood. In words: Example 4: thrombolysis of human blood thrombi in 3 mm collagen-coated stenotic capillary tubes. In kind it is cell-based. The settings on record: perfusion, human whole blood thrombus. On the procedure: In this example, an in-vitro randomized trial was performed using heparinized human blood in collagen-coated glass capillary tubes with a designed stenosis, mimicking arterial disease. Heparinized human blood was then infused through 3 mm capillary tubes at a constant flow rate, during which near-occlusive thrombi were formed at the region of stenosis (FIG. 11). DiNAC was then infused at a constant flow rate through the capillary tubes in order to observe thrombolytic activity, using a combination of live pressure monitoring and microscopic image capture. All infusions were control-matched with a phosphate-buffered saline solution in lieu of DiNAC.

For test [5], the system named is FeCl3 injury-induced thrombus. Details: dose or concentration left out as unconfirmed. The settings on record: after a 60 min treatment; FeCl3 injury in vivo; ADAMTS-13; cited from earlier work.
The conditions of test [6]: clinical study; cited from earlier work.
For test [7] the following is noted: stroke patients, clinical trial; cited from earlier work.

Regarding “tPA: Recombinant human tissue plasminogen activator, a serine protease converting plasminogen to plasmin”, the “thrombus surface area reduction” value in test [1] is reported as 23±4%. Also, in test [2] (fibrin clots, static conditions, over 48 h), the “clot dissolution front speed” value is recorded as about 3.5 μm/min. Besides, in test [2] (whole blood clot, 48 h, DiNAC and NAC at 2 mM), the “whole blood clot lysis over 48 h” value is “large decrease in clot volume”. Besides, the “clot weight reduction from baseline” value in test [2] (whole blood clot, after 6 h) was 26%; in test [3] (after 12 h), 36%. In addition, the “PRP clot lysis over 48 h” value in test [3] (48 h, DiNAC and NAC at 2 mM) is recorded as “large decrease in clot volume”. Besides, the “effect on clots and flow” value in test [4] is on record as “did not alter the clots or restore flow”. The “reduction of thrombus size” value in test [5] is reported as 53.2%. Also, in test [6], the recanalization rate entry is on record as “less than 30%”. In addition, the “relative risk reduction versus the placebo” value in test [7] was 30%.
